Data: patent US20080103209A1, “Compounds And Methods For Treating Non-Inflammatory Pain Using Ppar Alpha Agonists” (The Regents of The University of California, priority 2004, published 2008)

What was measured:
Type in all cases: in vivo, mouse
mice = test: Magnesium sulfate-evoked writhing test; settings: for average ED50, magnesium sulfate-evoked writhing / number of writhing episodes evoked by magnesium sulfate: subcutaneous, Swiss mice; for average ED50, magnesium sulfate-evoked writhing: n=8; for number of writhing episodes evoked by magnesium sulfate: GW7647 1-30, Wy-14643 4-80, PEA 1-20 mg-kg^−1
Procedure: Mice received a single dose of magnesium sulfate (120 mg/kg, dissolved in 0.5 ml saline, i.p.) and subsequent writhing episodes were monitored for a period of 30 min thereafter. Drugs were administered in saline/Tween 80/polyethylenglycol, (90/5/5) subcutaneously, 30 minutes before magnesium sulfate.
Next, the effect of PPARα agonists on the nocifensive behavior elicited by intraperitoneal injection of magnesium sulfate in mice, a model of visceral pain (Calignano, et al, Eur J Pharmacol 419, 191-8. (2001)), was explored.
Writhing test. Magnesium sulfate was injected (120 mg-kg^−1 in 0.5 ml saline, i.p.) in 12-h food-deprived mice and measured writhing episodes for 30 min (Calignano, et al, Eur J Pharmacol 419, 191-8. (2001)). Drugs or vehicle were administered by subcutaneous injection 30 min before magnesium sulfate.

Swiss mice [1] = test: Complete Freund's adjuvant-induced arthritis, hyperalgesia; settings: 30 mg-kg^−1 s.c., 60 min before test, day 7 and 14 after CFA
Procedure: (§1) Mechanical hyperalgesia was determined by measuring paw withdrawal thresholds to an increasing pressure onto the dorsal surface of the paw using an analgesimeter (Ugo Basile, Italy) with a cut-off of 250 g. Withdrawal thresholds were measured on both the ipsilateral paw (inflamed or ligated) and contralateral paw (uninflamed or unligated) 60 min after subcutaneous drug administration.
Thermal hyperalgesia was assessed by the methods of Hargreaves (Hargreaves et al., Pain, 32, 77 (1988)) by measuring the latency to withdraw the hind paws from a focussed beam of radiant heat applied to the plantar surface, using an appropriate apparatus (Ugo Basile, Italy). The cut-off time was set at 30 sec. The mice were habituated to the apparatus for 10-15 min two days prior to the experiment.

Swiss mice [2] = test: Prolonged carrageenan-induced paw oedema, hyperalgesia and oedema; settings: 30 mg-kg^−1 s.c. on the third day of carrageenan treatment
Source text: The ability of PPARα agonists to attenuate hyperalgesia was further explored in two mouse models of subchronic inflammation: (i) experimental arthritis elicited by intradermal injection of complete Freund's adjuvant (CFA) into the base of the tail (Whiteley et al., Current Protocols in Pharmacology, 2, 5.5.1-5.5.5. (2001)); and (ii) prolonged oedema induced by repeated carrageenan injections into the paw (Otterness et al., Methods Enzymol, 162, 320 (1988)). […] Both drugs, but not their vehicle, suppressed mechanical (FIG. 7A, 7B) and thermal (data not shown) sensitivity.
Carrageenan-induced paw oedema. An inflammatory response was initiated in the left hindpaw of male Swiss mice by injecting %-carrageenan (1% weight-vol^−1 in sterile saline, 50 μl) using a 27-gauge needle, and maintained it by repeating the injections on day 3, 7 and 14 after the first administration. Paw oedema was measured using a mouse plethysmometer (Ugo Basile, Italy) or by weighing the excised paw.
as §1

[3] = system: PKA-IIα regulatory subunit phosphorylation on Ser^96; test: Immunoblot of lumbar spinal cord extracts, phosphorylated PKA regulatory subunit; settings: neuropathic mice, PEA 30 mg-kg^−1 s.c. once daily for two weeks
Procedure: (§2) Opiate analgesics have a high liability to produce tolerance, a progressive loss of pharmacological activity caused by repeated drug administrations (Waldhoer et al., Annu Rev Biochem, 73, 953 (2004)). To assess whether tolerance develops to the antihyperalgesic effects of PPARα agonists, PEA (30 mg-kg^−1, s.c.) was administered once a day for 14 consecutive days from the time of surgery, measuring mechanical and thermal hyperalgesia at day 7 and 14.
(§3) Immunoblot analysis. Lumbar spinal cord tissue was weighed, homogenized in Tris-HCl (20 mM, pH 7.5), 10 mM NaF, 150 mM NaCl, 1% Nonidet P-40, 1 mM PMSF, 1 mM Na3VO4, leupeptin and trypsin inhibitor (10 μg/ml). After 1 h, the tissue lysates were subjected to centrifugation ay 100,000×g for 15 min at 4° C. Protein concentrations were estimated using a Bio-Rad protein assay and bovine serum albumin as a standard. Equal amounts of protein (20 μg) were dissolved in Laemmli sample buffer, boiled for 5 min, subjected to sodium dodecyl sulphate-polyacrylamide gel electrophoresis (8% polyacrylamide) and transferred onto nitrocellulose membranes at 240 mA for 40 min at room temperature. […] The films were scanned and densitometrically analysed with a model GS-700 imaging densitometer.

PKAα catalytic subunit = test: Immunoblot of lumbar spinal cord extracts, PKAα catalytic subunit; settings: neuropathic mice, PEA 30 mg-kg^−1 s.c. once daily for two weeks; change not statistically significant
Procedure: as §2, §3

[4] = Tissue PEA levels after subcutaneous PEA (LC/MS); settings: daily PEA injections s.c.
Procedure: LC/MS analysis. PEA was measured by high-performance liquid chromatography/tandem mass spectrometry. Tissue samples were weighed, cut into 1 mm^2 pieces, and incubated with 1 mL of acetonitrile at 4° C. overnight. Samples of the incubates (100 μl) were transferred to 96-well plates, diluted with 250 μL of acetonitrile containing [H2]-ethanolamine-OEA as an internal standard, and injected into the HPLC. HPLC analyses were carried out on a Waters 2790 Alliance system (Milford, Mass.) using a Phenomenex Synergi Polar-RP column (2 mm×150 mm, 4μ; Torrance, Calif.) and a mobile phase of 0.1% formic acid in water (solvent “A”) and 0.1% formic acid in acetonitrile (solvent “B”). Run conditions were isocratic (25% A and 75% B), at a flow rate of 0.3 mL min^−1, column temperature of 45° C., and a run time of 3 minutes. The HPLC system was interfaced with a Micromass Ultima (Beverly, Mass.) tandem mass spectrometer. The samples were analyzed using an electrospray probe in the positive ionization mode with the cone voltage set at 40 V and capillary at 3.2 kV. The source and desolvation temperature settings were 130° C. and 500° C., respectively. The voltage of the CID chamber was set at −17 eV. Multiple reaction monitoring was used for the detection of PEA as [M+H]^+ (m/z 300>62) and the standard as [M+H]^+ (m/z 330>66).

Row | SMILES | average ED50, magnesium sulfate-evoked writhing (mice) | number of writhing episodes evoked by magnesium sulfate (mice) | mechanical and thermal sensitivity in CFA arthritis (Swiss mice [1]) | mechanical sensitivity thresholds, carrageenan (Swiss mice [2]) | paw oedema, carrageenan (Swiss mice [2]) | magnesium sulfate induced writhing in PPARα−/− mice (mice; PPARα−/− mice, 20 mg-kg^−1 s.c.) | phosphorylation of PKA-IIα regulatory subunit at Ser^96 [3] | spinal tissue levels of PKA α catalytic subunit (PKAα catalytic subunit) | brain PEA levels vs vehicle-treated mice [4]
1 | CC(C)(Sc1ccc(CCN(CCCCC2CCCCC2)C(=O)NC2CCCCC2)cc1)C(=O)O [GW7647] | 7.5 mg/kg | dose-dependently decreased the number of writhing episodes | suppressed | normalized mechanical sensitivity thresholds | no effect |  |  |  | 
2 | CCCCCCCCCCCCCCCC(=O)NCCO [PEA, palmitoylethanolamide] | 9.9 mg/kg | dose-dependently decreased the number of writhing episodes | suppressed | normalized mechanical sensitivity thresholds | no effect | did not significantly modify | reduced | slightly decreased | significantly higher
